Measurements from US9546196B2, “Compositions and methods of treatment of cancers” (The University of Toledo, priority 2009, dated 2017).
“Also recorded” adds a separate entry of the source.

Tests used:
[1] = system: LNCaP cells; assay type: cell-based; parameters: cell death: dose or concentration left out as unconfirmed
Procedure: FIG. 12B: LNCaP cells were grown without androgen for 2 or 4 days in the presence of increasing concentration of Peptide A-8R [SEQ ID NO: 1] (upper left), Peptide B-8R [SEQ ID NO: 2] (upper right), Peptide C-8R [SEQ ID NO: 3] (lower left), or Peptide D-8R [SEQ ID NO: 4] (lower right). The MTT reagent was used to measure cell density.
FIG. 13A: LNCaP cells were grown with (Right) or without (Left) 1 nM androgen ([…]) for 3 or 6 days in the presence of increasing concentration of Peptide A-8R [SEQ ID NO: 1] or vehicle (70% DMSO). The MTT reagent was used to measure cell density.
FIG. 13B: LNCaP cells were grown with (Right) or without (Left) 1 nM androgen (R1881) for 3 or 6 days in the presence of increasing concentration of Peptide C-8R [SEQ ID NO: 3] or vehicle and then cell density was measured.
FIG. 14A: LNCaP cells were grown with (Right) or without (Left) 1 nM R1881 for 3 or 6 days in the presence of increasing concentration of Peptide A or vehicle and then cell density was measured.
FIG. 14B: LNCaP cells were grown with (Right) or without (Left) 1 nM R1881 for 3 or 6 days in the presence of increasing concentration of Peptide A-8R [SEQ ID NO: 1] or vehicle and then cell density was measured.
FIG. 15A: LNCaP cells were grown for 1-8 hrs in the presence of 10 μM Peptide A-8R [SEQ ID NO: 1] or vehicle and then cell density was measured.
FIG. 19C: LNCaP cells were grown with for 12 or 48 hrs in the presence of increasing concentration of Peptide A-8R [SEQ ID NO: 1] (Left) or PeptideA-8R-Biotin [SEQ ID NO: 1] (Right) and then cell density was measured.
Each peptide contained 8 arginines at the C-terminus, a sequence which is known to mediate plasma membrane translocation and cellular internalization.
(§1) To measure how rapid the cytotoxic effect of Peptide A-8R [SEQ ID NO: 1] occurs, LNCaP cells were treated with 10 μM peptide and incubated for 1-8 hrs. […] Using the same conditions, C81 cells were used to study the peptide effect on hormone-refractory prostate cancer cells.

[2] = system: C81 (androgen-refractory LNCaP) cells; experiment: C81 cell density with peptide; assay type: cell-based; conditions: 10 μM peptide; 1-8 hrs
Procedure: FIG. 15B: C81 (androgen-refractory LNCaP) cells were grown for 1-8 hrs in the presence of 10 μM Peptide A-8R [SEQ ID NO: 1] or vehicle and then cell density was measured.
as §1

[3] = system: PC-3 prostate cancer cells; experiment: PC-3 cell density with peptide; assay type: cell-based; conditions: even at 100 μM; 3 or 6 days; no endogenous sGCα1
Procedure: FIG. 17A: PC-3 prostate cancer cells were grown for 3 or 6 days in the presence of increasing concentration of Peptide A-8R [SEQ ID NO: 1] or vehicle and then cell density was measured.

[4] = system: ACHN human kidney cancer cells; experiment: ACHN cell density with peptide; assay type: cell-based; conditions: even at 100 μM; 2 or 4 days; no endogenous sGCα1
Procedure: FIG. 17C: ACHN human kidney cancer cells were grown for 2 or 4 days in the presence of increasing concentration of Peptide A-8R [SEQ ID NO: 1] or vehicle and then cell density was measured.

[5] = system: Caspase 3/7; experiment: Caspase 3/7 activity in LNCaP cells; assay type: cell-based; conditions: 10 mM Peptide A-8R
Procedure: FIG. 18A: LNCaP cells were grown for 1-24 hrs in the presence of vehicle, […] Peptide A-8R [SEQ ID NO: 1], or […] Etoposide and then measured for Caspase 3/7 activity.
To determine if the cytotoxicity of Peptide A-8R [SEQ ID NO: 1] is through apoptosis, LNCaP cells were monitored for Caspase 3/7 activity. […] Thus, Peptide A-8R [SEQ ID NO: 1] was able to induce Caspase 3/7 activity much faster than the well-studied apoptosis-inducing drug Etoposide. To confirm that the Peptide was killing cells via apoptosis, the inventors used the pan-caspase inhibitor Z-VAD-FMK.

[6] = system: C81 xenograft tumors; experiment: C81 xenograft tumors in mice, intratumoral injection; assay type: in vivo
Procedure: FIGS. 28A-C: Peptide A-8R [SEQ ID NO: 1] inhibits the growth of C81 prostate xenograft tumors. (A) C81 (hormone-independent LNCaP) xenograft tumors were grown in nude mice to a size of about 200 cubic mm and then treated every other day with five intratumoral injections of either Peptide A-8R [SEQ ID NO: 1] ([…] of animal) or vehicle (DMSO) for seven days, after which the tumors were left untreated and allowed to grow for an additional 3 weeks before the tumors were excised. Each point represents the average tumor size of three animals plus or minus the standard deviations. The arrow represents the last treatment of Peptide A-8R [SEQ ID NO: 1] or vehicle. There is a statistical significance (P<0.0004) of Peptide A activity, relative to vehicle, for each treatment day. […] Bar graphs represent averages of each set of three tumors plus standard deviations. Asterisks indicate statistical significance (P<0.02). (C) Image showing the strong anti-tumor effect of Peptide A-8R [SEQ ID NO: 1], as compared to vehicle control, in one animal.
This experiment was then repeated using hormone-refractory C81 cells. 2×10^6 C81 cells in 50 μL of growth medium was mixed with 50 μL Matrigel (BD Biosciences) and injected into both flanks of 4-6-week old SCID male mice. When tumor sizes reached 200 mm^3, 50 μL of Peptide A-8R (40 mg Peptide A-8R/kg of animal) [“A-8R” disclosed as SEQ ID NO: 1] or vehicle (DMSO) was directly injected into the tumors every other day. Injections were stopped after 5 times and tumors were measured every 3 days. Mice were euthanized after 3 weeks and tumors were excised. All procedures were approved by the University of Toledo, Division of Lab Animal Recourses (DLAR). Protein extracts were prepared by boiling the tumor tissue in 3×SDS buffer, and evaluated by SDS-PAGE gel. The procedure was carried out in strict accordance with the recommendations in the Guide for the Care and Use of Laboratory Animals of the National Institutes of Health. […] During the experiments, all animals were monitored daily for morbidity and all efforts were made to minimize suffering. […]

## Ac-TFCKAFPFHIIRRRRRRRR-OH [Peptide A-8R]
[1]; LNCaP, 10 μM peptide, 1-8 hrs
  cell number, time course: steep decline in cell number with one hour
[1]; LNCaP, peptide treatment, by day 6
  cell death: 100%
[1]; increasing concentration of peptide, days, with or without 1 nM R1881
  effect on LNCaP cell growth / cytotoxicity (in words): highly cytotoxic; also recorded: induced LNCaP cell death in both the absence and presence of androgens
[2]
  killing of C81 cells: very effective at killing
[3]
  effect on PC-3 cells: little to no effect
[4]
  effect on ACHN cells: little to no effect
[5]; after 8 hrs
  increase in caspase activity: ~4 fold
[5]; after 24 hrs
  caspase activity: diminished to Vehicle levels
[5]; by 1 hour
  increase in caspase activity: 2 fold
[6]; 40 mg/kg intratumoral every other day, five injections
  tumor growth during treatment: stopped tumor growth and actually caused some tumor regression
[6]; one mouse having two tumors
  tumor size versus vehicle-treated tumor in the same mouse: markedly smaller
[6]; three weeks after treatment was stopped
  tumor growth after peptide treatment was stopped: did not grow at all
